# Experimental data taken from ChEMBL document CHEMBL2010656, “Design, synthesis and evaluation of isaindigotone derivatives as dual inhibitors for acetylcholinesterase and amyloid beta aggregation” (Bioorg Med Chem, 2012).
# Active and inactive are the calls of the source. The rule behind the calls is not given here.
# Tests used:
# Cholinesterase = Cholinesterase (Equus caballus, UniProt P81908)
# Description: Inhibition of equine serum butyrylcholinesterase using butyrylthiocholine chloride as substrate preincubated for 15 mins before substrate addition by Ellman's method
# [1] = Inhibition of amyloid beta (1 to 40) self-mediated aggregation at 10 uM after 72 hrs by thioflavin T based fluorometric assay relative to control
# Acetylcholinesterase = Acetylcholinesterase (Electrophorus electricus, UniProt O42275)
# Description: Inhibition of electric eel acetylcholinesterase using acetylcholine chloride as substrate preincubated for 15 mins before substrate addition by Ellman's method
# [2] = Inhibition of amyloid beta (1 to 40) self-mediated aggregation assessed as inhibition of extended fibrils formation at 10 uM after 4 days by transmission electron microscopic analysis
# [3] = molecular target: Acetylcholinesterase (Electrophorus electricus) (UniProt O42275); assay: Mixed type inhibition of electric eel acetylcholinesterase preincubated for 15 mins by Lineweaver-Burk plot analysis
# [4] = Inhibition of amyloid beta (1 to 40) self-mediated aggregation assessed as reduction in beta-sheet structure formation at 20 uM after 3 days by CD spectropolarimetric analysis
# [5] = Inhibition of amyloid beta (1 to 40) self-mediated aggregation assessed as change in alpha-helix structure formation at 20 uM after 3 days by CD spectropolarimetric analysis
# Acetylcholinesterase, sequence (O42275 whole entry): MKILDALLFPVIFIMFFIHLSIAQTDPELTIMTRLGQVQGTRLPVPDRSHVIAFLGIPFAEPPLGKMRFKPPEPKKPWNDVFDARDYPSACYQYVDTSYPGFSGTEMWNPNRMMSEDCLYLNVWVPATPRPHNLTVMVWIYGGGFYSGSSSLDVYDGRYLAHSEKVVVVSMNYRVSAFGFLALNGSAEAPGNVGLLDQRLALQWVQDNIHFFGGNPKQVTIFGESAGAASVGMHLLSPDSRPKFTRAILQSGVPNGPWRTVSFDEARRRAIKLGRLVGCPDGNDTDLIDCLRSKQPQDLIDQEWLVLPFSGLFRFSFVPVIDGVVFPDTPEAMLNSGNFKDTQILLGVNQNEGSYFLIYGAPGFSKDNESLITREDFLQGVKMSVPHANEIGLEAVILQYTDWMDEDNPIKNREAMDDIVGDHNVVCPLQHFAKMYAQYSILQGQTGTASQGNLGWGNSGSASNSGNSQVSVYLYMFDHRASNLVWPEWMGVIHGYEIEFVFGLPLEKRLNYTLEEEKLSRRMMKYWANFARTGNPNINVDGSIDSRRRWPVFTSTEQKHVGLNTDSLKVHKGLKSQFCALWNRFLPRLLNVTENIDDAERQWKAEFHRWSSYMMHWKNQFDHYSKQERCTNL
# Cholinesterase, sequence (P81908 whole entry): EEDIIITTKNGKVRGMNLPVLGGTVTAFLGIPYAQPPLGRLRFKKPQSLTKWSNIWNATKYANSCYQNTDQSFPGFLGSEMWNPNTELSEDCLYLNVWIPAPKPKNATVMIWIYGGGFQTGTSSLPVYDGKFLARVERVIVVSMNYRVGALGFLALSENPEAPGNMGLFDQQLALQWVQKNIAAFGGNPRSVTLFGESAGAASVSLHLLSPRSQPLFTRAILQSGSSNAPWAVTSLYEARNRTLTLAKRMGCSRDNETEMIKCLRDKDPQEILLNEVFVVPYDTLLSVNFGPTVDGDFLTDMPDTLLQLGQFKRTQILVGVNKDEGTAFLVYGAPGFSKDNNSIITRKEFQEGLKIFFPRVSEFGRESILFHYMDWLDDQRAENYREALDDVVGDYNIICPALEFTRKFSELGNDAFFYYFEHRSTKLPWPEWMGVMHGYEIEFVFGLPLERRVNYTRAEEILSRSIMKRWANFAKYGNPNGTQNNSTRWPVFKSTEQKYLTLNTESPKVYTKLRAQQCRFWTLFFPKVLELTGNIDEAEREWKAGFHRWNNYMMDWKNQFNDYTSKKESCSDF
# Acetylcholinesterase (Electrophorus electricus), sequence (O42275 24-633 limits assumed): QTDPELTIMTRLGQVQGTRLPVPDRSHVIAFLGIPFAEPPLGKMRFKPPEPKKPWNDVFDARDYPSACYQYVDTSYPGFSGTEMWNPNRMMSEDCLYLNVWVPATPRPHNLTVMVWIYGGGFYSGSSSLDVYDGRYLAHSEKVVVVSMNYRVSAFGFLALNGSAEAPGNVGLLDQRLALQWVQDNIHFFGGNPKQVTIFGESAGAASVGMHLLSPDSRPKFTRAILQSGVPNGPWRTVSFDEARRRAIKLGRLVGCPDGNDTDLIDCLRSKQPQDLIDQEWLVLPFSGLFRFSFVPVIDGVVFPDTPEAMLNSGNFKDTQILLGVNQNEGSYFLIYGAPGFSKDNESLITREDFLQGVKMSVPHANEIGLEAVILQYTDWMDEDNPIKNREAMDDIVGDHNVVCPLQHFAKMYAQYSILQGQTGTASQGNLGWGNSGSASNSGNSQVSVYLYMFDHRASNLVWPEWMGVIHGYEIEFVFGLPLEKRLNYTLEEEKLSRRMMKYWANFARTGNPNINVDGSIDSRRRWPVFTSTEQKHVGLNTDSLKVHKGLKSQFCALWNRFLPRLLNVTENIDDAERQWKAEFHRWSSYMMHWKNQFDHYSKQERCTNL
Compound,IC50 (Cholinesterase) [µM],inhibition [1] [%],IC50 (Acetylcholinesterase) [µM],inhibition [2],inhibition [3],inhibition [4],inhibition [5]
O=C(NCCCN1CCCC1)c1ccc(/C=C2\CCCn3c2nc2cc(Cl)ccc2c3=O)cc1,0.5,53.3,1.21,,,,
COc1cc(/C=C/C(=O)CC(=O)/C=C/c2ccc(O)c(OC)c2)ccc1O,,48.8,,,,,
CCN(CC)CCC(=O)Nc1ccc(/C=C2\CCCn3c2nc2cc(Cl)ccc2c3=O)cc1,2.34,54.8,> 1,,,,
CN(C)CCCNC(=O)c1ccc(/C=C2\CCCn3c2nc2cc(Cl)ccc2c3=O)cc1,6.64,49.8,2.05,,,,
O=C(NCCN1CCCC1)c1ccc(/C=C2\CCn3c2nc2cc(Cl)ccc2c3=O)cc1,11.1,57.4,0.045,,,,
CCN(CC)CCC(=O)Nc1ccc(/C=C2\CCn3c2nc2cc(Cl)ccc2c3=O)cc1,6.44,39,0.06,,,,
O=C(CCN1CCCCC1)Nc1ccc(/C=C2\CCn3c2nc2cc(Cl)ccc2c3=O)cc1,2.88,49.8,0.023,,,,
O=C(CCN1CCCC1)Nc1ccc(/C=C2\CCn3c2nc2cc(Cl)ccc2c3=O)cc1,3.82,62.3,0.041,Active,Active,Active,inactive
O=C(NCCCN1CCCC1)c1ccc(/C=C2\CCn3c2nc2cc(Cl)ccc2c3=O)cc1,0.61,36.2,1.44,,,,
O=C(NCCN1CCCC1)c1ccc(/C=C2\CCCn3c2nc2cc(Cl)ccc2c3=O)cc1,6.75,53.6,1.51,,,,
CN(C)CCNC(=O)c1ccc(/C=C2\CCCn3c2nc2cc(Cl)ccc2c3=O)cc1,> 40,54.5,0.36,,,,
O=C(CC[n+]1ccccc1)Nc1ccc(/C=C2\CCCn3c2nc2cc(Cl)ccc2c3=O)cc1,3.38,33,0.82,,,,
CN(C)CCCNC(=O)c1ccc(/C=C2\CCn3c2nc2cc(Cl)ccc2c3=O)cc1,5.18,56.5,1.42,,,,
O=C(CCN1CCCCC1)Nc1ccc(/C=C2\CCCn3c2nc2cc(Cl)ccc2c3=O)cc1,5.99,52.9,0.031,,,,
O=C(CCN1CCCC1)Nc1ccc(/C=C2\CCCn3c2nc2cc(Cl)ccc2c3=O)cc1,6.45,53.5,> 1,,,,
O=C(CC[n+]1ccccc1)Nc1ccc(/C=C2\CCn3c2nc2cc(Cl)ccc2c3=O)cc1,1.7,49,0.049,,,,
CN(C)CCNC(=O)c1ccc(/C=C2\CCn3c2nc2cc(Cl)ccc2c3=O)cc1,> 20,36.8,0.16,,,,
